Experimental findings from US7902354B2, “Lapachone compounds and methods of use thereof” (ArQule, Inc., priority 2006, dated 2011) are described below.

A value given as a limit tells only on which side of the number the result lay.

Holding throughout (type): cell-based
Experiment [1] deals with A549 human lung carcinoma cells. The experiment in a line: MTS cell viability assay, A549 human lung carcinoma cells. The note with it: A549, 4 h compound incubation, MTS, read-out: IC50 Values, Cancerous Cells, Lung A549.
For experiment [2], the system named is DLD-1 human colon carcinoma cells. The experiment in a line: MTS cell viability assay, DLD-1 human colon carcinoma cells. To be noted: DLD-1, 4 h compound incubation, MTS, read-out: IC50 Values, Cancerous Cells, Colon DLD-1. On the technique in general: Tetrazolium assays rely on reduction of a dye to a coloured formazan, in cell work by metabolically active cells.

For experiment [3], the system named is DU-145 human prostate carcinoma cells. The experiment in a line: MTS cell viability assay, DU-145 human prostate carcinoma cells. The note with it: DU-145, 4 h compound incubation, MTS, read-out: IC50 Values, Cancerous Cells, Prostate DU-145.
Experiment [4] deals with K-562 human leukemia cells. The experiment in a line: MTS cell viability assay, K-562 human leukemia cells. The note with it: K562, K-562, 4 h compound incubation, MTS, read-out: IC50 Values, Cancerous Cells, Leukemia K-562.
The test system of experiment [5] is PACA-2 human pancreatic carcinoma cells. Briefly: MTS cell viability assay, PACA-2 human pancreatic carcinoma cells. The note with it: PACA-2, 4 h compound incubation, MTS, read-out: IC50 Values, Cancerous Cells, Pancreas PACA-2.
Experiment [6] has as its system NCM-460 normal colon epithelial cells. The experiment in a line: MTS cell viability assay, NCM-460 normal colon epithelial cells. To be noted: for IC50: Homo sapiens, NCM460, NCM-460, 4 h compound incubation, MTS, read-out: IC50 Values, Normal Cells, Colon NCM-460; for Fold Selectivity (NCM-460/DLD1): ratio of IC50 NCM-460 / DLD1.

As usually defined, the IC50 is the concentration that gives 50% inhibition.

As for `Cn1cnc(S(=O)(=O)N2CCC3(CC2)CSC2=C(O3)c3ccccc3C(=O)C2=O)c1` [Compound 79, 1′-[(1-methyl-1H-imidazol-4-yl)sulfonyl]spiro[naphtho[1,2-b][1,4]oxathiine-2,4′-piperidine]-5,6-dione], the half-inhibitory concentration (IC50) in experiment [1] amounted to 23.5 µM; in experiment [2], 8.26 µM; in experiment [3], 11.9 µM; in experiment [4], 5.92 µM; in experiment [5], 7.26 µM; in experiment [6], 20.5 µM. Further, in experiment [6], the “Fold Selectivity (NCM-460/DLD1)” value is 2.5.

For `Cc1nn(C)c(C)c1S(=O)(=O)N1CCC2(CC1)CSC1=C(O2)c2ccccc2C(=O)C1=O` [Compound 80, 1′-[(1,3,5-trimethyl-1H-pyrazol-4-yl)sulfonyl]spiro[naphtho[1,2-b][1,4]oxathiine-2,4′-piperidine]-5,6-dione], the concentration for half-maximal inhibition (IC50) in experiment [1] is 18.3 µM; in experiment [2], 3.53 µM; in experiment [3], 4.25 µM; in experiment [4] it was 3.81 µM; in experiment [5] it was 3.35 µM; in experiment [6] it was 12.9 µM. For the same molecule, the “Fold Selectivity (NCM-460/DLD1)” value in experiment [6] is on record as 3.7.

`Cc1nn(C)c(Cl)c1S(=O)(=O)N1CCC2(CC1)CSC1=C(O2)c2ccccc2C(=O)C1=O` [Compound 81, 1′-[(5-chloro-1,3-dimethyl-1H-pyrazol-4-yl)sulfonyl]spiro[naphtho[1,2-b][1,4]oxathiine-2,4′-piperidine]-5,6-dione]: the half-inhibitory concentration (IC50) in experiment [1] is greater than 100 µM; in experiment [2] it was 12.3 µM; in experiment [3] it was 13.7 µM; in experiment [4] it was 12.3 µM; in experiment [5], 12.1 µM; in experiment [6], 30.2 µM. Besides, the “Fold Selectivity (NCM-460/DLD1)” value in experiment [6] is recorded as 2.5.

Regarding `O=C1C(=O)c2ccccc2C2=C1SCC1(CCN(S(=O)(=O)c3cccc(Cl)c3)CC1)O2` [Compound 82, 1′-[(3-chlorophenyl)sulfonyl]spiro[naphtho[1,2-b][1,4]oxathiine-2,4′-piperidine]-5,6-dione], the half-maximal inhibitory concentration (IC50) in experiment [1] amounted to 15.3 µM; in experiment [2] it was 8.88 µM; in experiment [3], 7.88 µM; in experiment [4] it was 10 µM; in experiment [5], 4.59 µM; in experiment [6], 21.1 µM. In experiment [6], the “Fold Selectivity (NCM-460/DLD1)” value worked out at 2.4.

Consider `O=C1C(=O)c2ccccc2C2=C1SCC1(CCN(C(=O)Nc3ccccc3)CC1)O2` [Compound 84, 5,6-dioxo-N-phenyl-5,6-dihydro-1′H-spiro[naphtho[1,2-b][1,4]oxathiine-2,4′-piperidine]-1′-carboxamide], for which the IC50 in experiment [1] is 16.9 µM; in experiment [2], 4.69 µM; in experiment [3], 10.3 µM; in experiment [4] it was 6.83 µM; in experiment [5], 6.38 µM; in experiment [6], 19.1 µM. In addition, the “Fold Selectivity (NCM-460/DLD1)” value in experiment [6] is recorded as 4.1.

Regarding `O=C1C(=O)c2ccccc2C2=C1SCC1(CCN(C(=O)Nc3ccc(F)cc3)CC1)O2` [Compound 85, N-(4-fluorophenyl)-5,6-dioxo-5,6-dihydro-1′H-spiro[naphtho[1,2-b][1,4]oxathiine-2,4′-piperidine]-1′-carboxamide], the IC50 turned out to be 6.38 µM in experiment [1]; 1.29 µM in experiment [2]; 1.88 µM in experiment [3]; 1.32 µM in experiment [4]; 1.14 µM in experiment [5]; 3.31 µM in experiment [6]. Besides, in experiment [6], the “Fold Selectivity (NCM-460/DLD1)” value stood at 2.6.

On to `O=C1C(=O)c2ccccc2C2=C1SCC1(CCN(C(=O)Nc3cccc(C(F)(F)F)c3)CC1)O2` [Compound 86, 5,6-dioxo-N-[3-(trifluoromethyl)phenyl]-5,6-dihydro-1′H-spiro[naphtho[1,2-b][1,4]oxathiine-2,4′-piperidine]-1′-carboxamide], for which the IC50 was 3.84 µM in experiment [1]; 1.48 µM in experiment [2]; 1.03 µM in experiment [3]; 2.17 µM in experiment [4]; 1.33 µM in experiment [5]; 10.1 µM in experiment [6]. In addition, in experiment [6], the “Fold Selectivity (NCM-460/DLD1)” value stood at 6.8.

`O=C1C(=O)c2ccccc2C2=C1SCC1(CCN(C(=O)Nc3ccc(Cl)c(Cl)c3)CC1)O2` [Compound 87, N-(3,4-dichlorophenyl)-5,6-dioxo-5,6-dihydro-1′H-spiro[naphtho[1,2-b][1,4]oxathiine-2,4′-piperidine]-1′-carboxamide]: the half-inhibitory concentration (IC50) was found to be 3.31 µM in experiment [1]; 3.04 µM in experiment [2]; 0.888 µM in experiment [3]; 3.11 µM in experiment [4]; 1.34 µM in experiment [5]; 30.5 µM in experiment [6]. Further, in experiment [6], the “Fold Selectivity (NCM-460/DLD1)” value was found to be 10.0.

For the molecule `CN(C)c1ccc(NC(=O)N2CCC3(CC2)CSC2=C(O3)c3ccccc3C(=O)C2=O)cc1` [Compound 88, N-[4-(dimethylamino)phenyl]-5,6-dioxo-5,6-dihydro-1′H-spiro[naphtho[1,2-b][1,4]oxathiine-2,4′-piperidine]-1′-carboxamide], the half-inhibitory concentration (IC50) in experiment [1] turned out to be 13.3 µM; in experiment [2] it was 1.49 µM; in experiment [3] it was 4.33 µM; in experiment [4], 2.14 µM; in experiment [5], 1.85 µM; in experiment [6], 6.08 µM. For the same molecule, the “Fold Selectivity (NCM-460/DLD1)” value in experiment [6] was 4.1.

With `Cc1ccc(NC(=O)N2CCC3(CC2)CSC2=C(O3)c3ccccc3C(=O)C2=O)cn1` [Compound 91, N-(6-methylpyridin-3-yl)-5,6-dioxo-5,6-dihydro-1′H-spiro[naphtho[1,2-b][1,4]oxathiine-2,4′-piperidine]-1′-carboxamide], the IC50 in experiment [1] is 10.2 µM; in experiment [2], 1.6 µM; in experiment [3], 2.87 µM; in experiment [4], 1.45 µM; in experiment [5] it was 1.35 µM; in experiment [6], 9 µM. For the same molecule, the “Fold Selectivity (NCM-460/DLD1)” value in experiment [6] is on record as 5.6.

Take `O=C1C(=O)c2ccccc2C2=C1SCC1(CCN(C(=O)Oc3ccccc3)CC1)O2` [Compound 92, phenyl 5,6-dioxo-5,6-dihydro-1′H-spiro[naphtho[1,2-b][1,4]oxathiine-2,4′-piperidine]-1′-carboxylate]: the half-maximal inhibitory concentration (IC50) in experiment [1] came out at 31 µM; in experiment [2], 4.01 µM; in experiment [3] it was 9.11 µM; in experiment [4] it was 4.54 µM; in experiment [5] it was 4.29 µM; in experiment [6] it was 13.1 µM. Moreover, the “Fold Selectivity (NCM-460/DLD1)” value in experiment [6] was determined as 3.3.

Regarding `CC(C)COC(=O)N1CCC2(CC1)CSC1=C(O2)c2ccccc2C(=O)C1=O` [Compound 93, isobutyl 5,6-dioxo-5,6-dihydro-1′H-spiro[naphtho[1,2-b][1,4]oxathiine-2,4′-piperidine]-1′-carboxylate], the IC50 in experiment [1] was 4.87 µM; in experiment [2], 1.68 µM; in experiment [3], 4.25 µM; in experiment [4], 2.46 µM; in experiment [5], 3.55 µM; in experiment [6] it was 10.8 µM. The “Fold Selectivity (NCM-460/DLD1)” value in experiment [6] is recorded as 6.4.

Take `C=COC(=O)N1CCC2(CC1)CSC1=C(O2)c2ccccc2C(=O)C1=O` [Compound 94, vinyl 5,6-dioxo-5,6-dihydro-1′H-spiro[naphtho[1,2-b][1,4]oxathiine-2,4′-piperidine]-1′-carboxylate]: the 50% inhibitory concentration (IC50) in experiment [1] turned out to be 8.52 µM; in experiment [2], 2.41 µM; in experiment [3], 3.69 µM; in experiment [4], 2.49 µM; in experiment [5], 2.81 µM; in experiment [6], 9.48 µM. For the same molecule, the “Fold Selectivity (NCM-460/DLD1)” value in experiment [6] is listed as 3.9.
